Assay results: US10988462B2, “Pyrazole compounds substituted with heteroaryl and pharmaceutical use thereof” (Japan Tobacco Inc., priority 2018, dated 2021)

Experiments:
[1] = tested on: Salmonella typhimurium TA1535; experiment: Ames test (reverse mutation test), pre-incubation method, strain TA1535; assay type: cell-based
Procedure: (§1) Ames Test (Reverse Mutation Test)
(§2) Metabolites 1 to 3 and Metabolites A to E were each tested herein. The purpose of this test is to evaluate the potential of each metabolite to induce reverse mutations in the standard strains of Salmonella typhimurium (TA98, TA1537, TA100, and TA1535) and Escherichia coli (WP2uvrA), in either the presence or absence of a rat liver metabolic activation system (S9 mix).
(§3) The solvent used herein was dimethyl sulfoxide (DMSO, 100 μL/plate).
(§4) The test was performed by the pre-incubation method with or without S9 mix. When the test was performed without S9 mix, sodium phosphate buffer solution (pH 7.4) was added.
(§5) 0.5 mL of S9 mix or 0.5 mL of 0.1 mol/L sodium phosphate buffer solution (pH 7.4), and 0.1 mL of the bacterial culture solution were added to a test tube containing 0.1 mL of the negative control formulation (DMSO alone), the metabolite, or the positive control formulation. The mixtures were pre-incubated at 37° C. for 20 minutes while shaking. After the pre-incubation period, 2 mL of top agar were added and the mixtures were vortex-mixed and seeded onto plates. Two plates per treatment were used. Each plate was incubated at 37±1° C. for 48 hours or more and the revertant colonies were counted. The mean number of revertant colonies for each treatment plate was then calculated. The presence or absence of growth inhibition due to any antibacterial effect of the test article and precipitation of the test article was observed grossly or under a stereomicroscope. […] Evaluation was based on mean values with no statistical comparisons being used.

[2] = tested on: Salmonella typhimurium TA98; experiment: Ames test (reverse mutation test), pre-incubation method, strain TA98
Procedure: as §1, §2, §3, §4, §5

[3] = tested on: Salmonella typhimurium TA1537; experiment: Ames test (reverse mutation test), pre-incubation method, strain TA1537; assay type: cell-based
Procedure: as §1, §2, §3, §4, §5

[4] = tested on: Salmonella typhimurium TA100; experiment: Ames test (reverse mutation test), pre-incubation method, strain TA100; assay type: cell-based
Procedure: as §1, §2, §3, §4, §5

[5] = tested on: Escherichia coli WP2uvrA; experiment: Ames test (reverse mutation test), pre-incubation method, strain WP2uvrA; assay type: cell-based
From the text: as §1
Two plates per treatment were used.

CC(C)(Oc1cc(F)cc(-c2cc(N)nn2-c2cnc(C(F)(F)F)nc2)c1)C(F)(F)F [Metabolite 1]
Number of revertant colonies TA1535 ([1]; S9 mix +, dose 6.9 μg/plate): 10
Number of revertant colonies TA1535 ([1]; S9 mix +, dose 21 μg/plate): 8
Number of revertant colonies TA1535 ([1]; S9 mix +, dose 62 μg/plate): 9
Number of revertant colonies TA1535 ([1]; S9 mix +, dose 185 μg/plate): 10
Number of revertant colonies TA1535 ([1]; S9 mix +, dose 556 μg/plate): 9
Number of revertant colonies TA1535 ([1]; S9 mix +, dose 1667 μg/plate): 10
Number of revertant colonies TA1535 ([1]; S9 mix +, dose 5000 μg/plate): 7
Number of revertant colonies TA1535 ([1]; S9 mix −, dose 6.9 μg/plate): 11
Number of revertant colonies TA1535 ([1]; S9 mix −, dose 21 μg/plate): 10
Number of revertant colonies TA1535 ([1]; S9 mix −, dose 62 μg/plate): 9
Number of revertant colonies TA1535 ([1]; S9 mix −, dose 185 μg/plate): 7
Number of revertant colonies TA1535 ([1]; S9 mix −, dose 556 μg/plate): 9
Number of revertant colonies TA1535 ([1]; S9 mix −, dose 1667 μg/plate): 5
Number of revertant colonies TA1535 ([1]; S9 mix −, dose 5000 μg/plate): 7
Number of revertant colonies TA98 ([2]; S9 mix +, dose 185 μg/plate): 40
Number of revertant colonies TA98 ([2]; S9 mix −, dose 21 μg/plate): 32
Number of revertant colonies TA1537 ([3]; S9 mix +, dose 6.9 μg/plate): 13
Number of revertant colonies TA1537 ([3]; S9 mix +, dose 21 μg/plate): 12
Number of revertant colonies TA1537 ([3]; S9 mix +, dose 62 μg/plate): 13
Number of revertant colonies TA1537 ([3]; S9 mix +, dose 185 μg/plate): 13
Number of revertant colonies TA1537 ([3]; S9 mix +, dose 556 μg/plate): 10
Number of revertant colonies TA1537 ([3]; S9 mix +, dose 1667 μg/plate): 9
Number of revertant colonies TA1537 ([3]; S9 mix +, dose 5000 μg/plate): 4
Number of revertant colonies TA1537 ([3]; S9 mix −, dose 6.9 μg/plate): 8
Number of revertant colonies TA1537 ([3]; S9 mix −, dose 21 μg/plate): 8
Number of revertant colonies TA1537 ([3]; S9 mix −, dose 62 μg/plate): 8
Number of revertant colonies TA1537 ([3]; S9 mix −, dose 185 μg/plate): 9
Number of revertant colonies TA1537 ([3]; S9 mix −, dose 556 μg/plate): 9
Number of revertant colonies TA1537 ([3]; S9 mix −, dose 1667 μg/plate): 5
Number of revertant colonies TA1537 ([3]; S9 mix −, dose 5000 μg/plate): 3
Number of revertant colonies TA100 ([4]; S9 mix +, dose 6.9 μg/plate): 132
Number of revertant colonies TA100 ([4]; S9 mix +, dose 21 μg/plate): 132
Number of revertant colonies TA100 ([4]; S9 mix +, dose 62 μg/plate): 113
Number of revertant colonies TA100 ([4]; S9 mix +, dose 185 μg/plate): 108
Number of revertant colonies TA100 ([4]; S9 mix +, dose 556 μg/plate): 128
Number of revertant colonies TA100 ([4]; S9 mix +, dose 1667 μg/plate): 131
Number of revertant colonies TA100 ([4]; S9 mix +, dose 5000 μg/plate): 121
Number of revertant colonies TA100 ([4]; S9 mix −, dose 6.9 μg/plate): 89
Number of revertant colonies TA100 ([4]; S9 mix −, dose 21 μg/plate): 87
Number of revertant colonies TA100 ([4]; S9 mix −, dose 62 μg/plate): 87
Number of revertant colonies TA100 ([4]; S9 mix −, dose 185 μg/plate): 89
Number of revertant colonies TA100 ([4]; S9 mix −, dose 556 μg/plate): 80
Number of revertant colonies TA100 ([4]; S9 mix −, dose 1667 μg/plate): 69
Number of revertant colonies TA100 ([4]; S9 mix −, dose 5000 μg/plate): 47
Number of revertant colonies WP2uvrA ([5]; S9 mix +, dose 6.9 μg/plate): 18
Number of revertant colonies WP2uvrA ([5]; S9 mix +, dose 21 μg/plate): 20
Number of revertant colonies WP2uvrA ([5]; S9 mix +, dose 62 μg/plate): 18
Number of revertant colonies WP2uvrA ([5]; S9 mix +, dose 185 μg/plate): 16
Number of revertant colonies WP2uvrA ([5]; S9 mix +, dose 556 μg/plate): 18
Number of revertant colonies WP2uvrA ([5]; S9 mix +, dose 1667 μg/plate): 14
Number of revertant colonies WP2uvrA ([5]; S9 mix +, dose 5000 μg/plate): 11
Number of revertant colonies WP2uvrA ([5]; S9 mix −, dose 6.9 μg/plate): 17
Number of revertant colonies WP2uvrA ([5]; S9 mix −, dose 21 μg/plate): 19
Number of revertant colonies WP2uvrA ([5]; S9 mix −, dose 62 μg/plate): 16
Number of revertant colonies WP2uvrA ([5]; S9 mix −, dose 185 μg/plate): 17
Number of revertant colonies WP2uvrA ([5]; S9 mix −, dose 556 μg/plate): 18
Number of revertant colonies WP2uvrA ([5]; S9 mix −, dose 1667 μg/plate): 15
Number of revertant colonies WP2uvrA ([5]; S9 mix −, dose 5000 μg/plate): 9

Nc1cc(-c2cc(F)cc(OC(F)(F)F)c2)n(-c2cncc(F)c2)n1 [Metabolite 2]
Number of revertant colonies TA98 ([2]; S9 mix +, dose 62 μg/plate): 35
Number of revertant colonies TA98 ([2]; S9 mix −, dose 21 μg/plate): 30
Number of revertant colonies TA98 ([2]; S9 mix −, dose 185 μg/plate): 28
Number of revertant colonies TA1537 ([3]; S9 mix +, dose 6.9 μg/plate): 12
Number of revertant colonies TA1537 ([3]; S9 mix +, dose 21 μg/plate): 13
Number of revertant colonies TA1537 ([3]; S9 mix +, dose 62 μg/plate): 12
Number of revertant colonies TA1537 ([3]; S9 mix +, dose 185 μg/plate): 12
Number of revertant colonies TA1537 ([3]; S9 mix +, dose 556 μg/plate): 8
Number of revertant colonies TA1537 ([3]; S9 mix +, dose 1667 μg/plate): 0
Number of revertant colonies TA1537 ([3]; S9 mix +, dose 5000 μg/plate): 1
Number of revertant colonies TA1537 ([3]; S9 mix −, dose 6.9 μg/plate): 9
Number of revertant colonies TA1537 ([3]; S9 mix −, dose 21 μg/plate): 8
Number of revertant colonies TA1537 ([3]; S9 mix −, dose 62 μg/plate): 8
Number of revertant colonies TA1537 ([3]; S9 mix −, dose 185 μg/plate): 8
Number of revertant colonies TA1537 ([3]; S9 mix −, dose 556 μg/plate): 3
Number of revertant colonies TA1537 ([3]; S9 mix −, dose 1667 μg/plate): 3
Number of revertant colonies TA1537 ([3]; S9 mix −, dose 5000 μg/plate): 2
Number of revertant colonies TA100 ([4]; S9 mix +, dose 6.9 μg/plate): 109
Number of revertant colonies TA100 ([4]; S9 mix +, dose 21 μg/plate): 119
Number of revertant colonies TA100 ([4]; S9 mix +, dose 62 μg/plate): 118
Number of revertant colonies TA100 ([4]; S9 mix +, dose 185 μg/plate): 125
Number of revertant colonies TA100 ([4]; S9 mix +, dose 556 μg/plate): 115
Number of revertant colonies TA100 ([4]; S9 mix +, dose 1667 μg/plate): 97
Number of revertant colonies TA100 ([4]; S9 mix +, dose 5000 μg/plate): 92
Number of revertant colonies TA100 ([4]; S9 mix −, dose 6.9 μg/plate): 89
Number of revertant colonies TA100 ([4]; S9 mix −, dose 21 μg/plate): 90
Number of revertant colonies TA100 ([4]; S9 mix −, dose 62 μg/plate): 87
Number of revertant colonies TA100 ([4]; S9 mix −, dose 185 μg/plate): 86
Number of revertant colonies TA100 ([4]; S9 mix −, dose 556 μg/plate): 6
Number of revertant colonies TA100 ([4]; S9 mix −, dose 1667 μg/plate): 5
Number of revertant colonies TA100 ([4]; S9 mix −, dose 5000 μg/plate): 5
Number of revertant colonies WP2uvrA ([5]; S9 mix +, dose 6.9 μg/plate): 19
Number of revertant colonies WP2uvrA ([5]; S9 mix +, dose 21 μg/plate): 19
Number of revertant colonies WP2uvrA ([5]; S9 mix +, dose 62 μg/plate): 19
Number of revertant colonies WP2uvrA ([5]; S9 mix +, dose 185 μg/plate): 19
Number of revertant colonies WP2uvrA ([5]; S9 mix +, dose 556 μg/plate): 17
Number of revertant colonies WP2uvrA ([5]; S9 mix +, dose 1667 μg/plate): 14
Number of revertant colonies WP2uvrA ([5]; S9 mix +, dose 5000 μg/plate): 9
Number of revertant colonies WP2uvrA ([5]; S9 mix −, dose 6.9 μg/plate): 21
Number of revertant colonies WP2uvrA ([5]; S9 mix −, dose 21 μg/plate): 16
Number of revertant colonies WP2uvrA ([5]; S9 mix −, dose 62 μg/plate): 23
Number of revertant colonies WP2uvrA ([5]; S9 mix −, dose 185 μg/plate): 20
Number of revertant colonies WP2uvrA ([5]; S9 mix −, dose 556 μg/plate): 16
Number of revertant colonies WP2uvrA ([5]; S9 mix −, dose 1667 μg/plate): 13
Number of revertant colonies WP2uvrA ([5]; S9 mix −, dose 5000 μg/plate): 8
